Measurements published in article PMC5021139 (Journal of Neuroendocrinology, 2016).
One block for each molecule: values may come before it. *1 amine or outer side, *2 acyl side, *3 side chain or, on linkers, in order; H or OH if unused. Where a SMILES comes first, the peptide text is derived from it. Bridges are numbered along the chain shown (N, C = ends). Where no end group is shown, it is not given here. X1 = O=C(CCC[*:2])[*:1]

How the values were obtained:
[1] = parameters: method as in PMID 6831225; settings: parenteral administration; cited from earlier work
[2] = parameters: method as in PMID 6831225; settings: cited from earlier work
[3] = cited from earlier work
[4] = target: T1, human oxytocin receptor (hOXTR) (Homo sapiens, UniProt P30559)
[5] = test system: aminopeptidase and disulphidase; settings: cited from earlier work
[6] = target: T1, human oxytocin receptor (hOXTR); settings: carbetocin vs oxytocin
[7] = target: T1, human oxytocin receptor (hOXTR); test: cell-based; settings: HEK293, read-out: maximal activation (BRETmax) relative to oxytocin
[8] = test system: somatostatin receptor (SST2R); parameters: method as in PMID 25012983; settings: functioning gastroenteropancreatic neuroendocrine tumours; cited from earlier work
[9] = test system: human vasopressin V1a receptor (V1aR); test: BRET2 G-protein activation at V1aR in HEK293 cells; format: cell-based; settings: 10 μM ligand, 2 min, Gq, Gi1, Gi2, Gi3, Go, minimum of three experiments
Excerpt: (A) V1aR or (B) V1bR were transfected together with GFP10‐Gγ2, Gβ1 and different Rluc8‐tagged Gα subunits: Gq, Gi1, Gi2, Gi3, Go.

[10] = test system: human vasopressin V1b receptor (V1bR); test: BRET2 G-protein activation at V1bR in HEK293 cells; settings: 10 μM ligand, 2 min, Gq, Gi1, Gi2, Gi3, Go, minimum of three experiments
[11] = test system: OXTR; settings: cited from earlier work
[12] = target: T2, human oxytocin receptor fused to Renilla luciferase (hOXTR‐Rluc) (human, UniProt P30559 1-389); test: FRET or BRET; kinetic BRET1 in HEK293 cells co-transfected with hOXTR-Rluc (donor) and β-arrestin1- or β-arrestin2-Venus (acceptor); cells in PBS with 0.1% glucose at room temperature; coelenterazine h added 8 min before oxytocin (10 μM); read in real time for 5 min; settings: partners not purified
T2 construct: oxytocin receptor, human; Rluc introduced at the C-terminus; source: HEK293, transfected (PEI), in living cells; not shown: Rluc (Renilla luciferase), C-terminal, kept
T2 sequence (looked up): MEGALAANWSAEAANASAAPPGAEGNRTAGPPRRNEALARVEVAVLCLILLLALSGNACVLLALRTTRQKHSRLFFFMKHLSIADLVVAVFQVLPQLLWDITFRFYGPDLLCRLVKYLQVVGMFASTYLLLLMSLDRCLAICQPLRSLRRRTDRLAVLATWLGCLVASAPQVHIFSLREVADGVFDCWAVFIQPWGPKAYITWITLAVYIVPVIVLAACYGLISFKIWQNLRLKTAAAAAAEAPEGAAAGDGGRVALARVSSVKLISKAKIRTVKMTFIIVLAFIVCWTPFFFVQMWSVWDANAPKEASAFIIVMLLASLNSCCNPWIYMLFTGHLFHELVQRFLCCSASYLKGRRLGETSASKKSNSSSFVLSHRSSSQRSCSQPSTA

Molecule: CC[C@H](C)[C@@H]1NC(=O)[C@H](Cc2ccc(O)cc2)NC(=O)[C@@H](N)CSSC[C@@H](C(=O)N2CCC[C@H]2C(=O)N[C@@H](CC(C)C)C(=O)NCC(N)=O)NC(=O)[C@H](CC(N)=O)NC(=O)[C@H](CCC(N)=O)NC1=O [oxytocin]
blood-brain barrier crossing [1]: does not cross the blood–brain barrier in a significant amount
half-life in the cerebrospinal fluid [2]: short half‐life
half-life in the peripheral circulation [3]: 3.4 min
half-life in the plasma [3]: short half‐life in the plasma

EC50 of Gq activation (BRET2 between Gαq-Rluc8 and GFP10-Gγ2) in HEK293 cells expressing hOXTR, 10^-13 to 10^-5 M, 2 min [4]: 48.8 nM
maximal activation (BRETmax) of the Gq biosensor in HEK293 cells expressing hOXTR, against that of oxytocin (% of oxytocin) [4]: 45
Molecule: carbetocin (deamino‐1‐monocarba‐(2‐O‐methyltyrosine)‐oxytocin) (peptide)

Molecule: CC[C@H](C)[C@@H]1NC(=O)[C@H](Cc2ccc(OC)cc2)NC(=O)CCCSC[C@@H](C(=O)N2CCC[C@H]2C(=O)N[C@@H](CC(C)C)C(=O)NCC(N)=O)NC(=O)[C@H](CC(N)=O)NC(=O)[C@H](CCC(N)=O)NC1=O [carbetocin, deamino‐1‐monocarba‐(2‐O‐methyltyrosine)‐oxytocin] (Y(Me)IQNCPLG-NH2; linker N-5 via X1)
protection from aminopeptidase degradation and disulphidase cleavage [5]: very effective protection of carbetocin from aminopeptidase degradation and disulphidase cleavage
reduction in maximal OXTR/Gq activation compared to oxytocin [6]: 50%
Emax [7]: 45 ± 6%
half-life in the peripheral circulation [3]: 85 to 100 min

Molecule: octreotide
antisecretory potency on long-term treatment [8]: antisecretory potency decreased with long‐term treatment as a consequence of the persistent internalisation of SST2R

Molecule: arginine vasopressin: neuropeptide arginine vasopressin, obtained from Bachem (CYFQNCPRG; not fully specified (C-terminus, bridges); cysteine pairing not given here; UniProt P01185 20-28, looked up)
V1aR activation, all G-proteins tested [9]: significantly promoted the coupling/activation
V1bR activation, all G-proteins tested [10]: significantly promoted the coupling/activation

Molecule: atosiban
G-protein functional selectivity [11]: a Gi3 functional selective agonists

t1/2 of the oxytocin-induced increase of the BRET ratio [12]: 1.98 min
B1: β‐arrestin1‐Venus (natural protein, UniProt P49407 1-418, looked up)
chain: MGDKGTRVFKKASPNGKLTVYLGKRDFVDHIDLVDPVDGVVLVDPEYLKERRVYVTLTCAFRYGREDLDVLGLTFRKDLFVANVQSFPPAPEDKKPLTRLQERLIKKLGEHAYPFTFEIPPNLPCSVTLQPGPEDTGKACGVDYEVKAFCAENLEEKIHKRNSVRLVIRKVQYAPERPGPQPTAETTRQFLMSDKPLHLEASLDKEIYYHGEPISVNVHVTNNTNKTVKKIKISVRQYADICLFNTAQYKCPVAMEEADDTVAPSSTFCKVYTLTPFLANNREKRGLALDGKLKHEDTNLASSTLLREGANREILGIIVSYKVKVKLVVSRGGLLGDLASSDVAVELPFTLMHPKPKEEPPHREVPENETPVDTNLIELDTNDDDIVFEDFARQRLKGMKDDKEEEEDGTGSPQLNNR
notes: β-arrestin1; Venus (yellow variant of GFP) fused to its C-terminus; vector provided by Professor M. Locati; source: HEK293, transfected (PEI), in living cells; not shown: Venus, C-terminal, kept
